# According to patent US6821326B2 (Arch Chemicals, Inc., priority 2002, dated 2004):
# Experiments:
# [1] = Particle size analysis on a Horiba Laser light scattering particle size analyzer; assay type: physicochemical; conditions: commercial powder before low shear mixing into xylene dispersion (Comparative Example A)
# Method: As a comparison to the dispersions of the present invention, 13 grams “LAROFLEX MP25” polymer resin (vinyl chloride-isobutyl vinyl ether copolymer, a product of BASF Corporation, Charlotte, N.C.) was dissolved into 832 grams of xylene. […] The mixture was stirred at low speed (1000 rpm) and with low shear for 0.5 hours to provide adequate mixing until a homogenous mixture was achieved.
# The diluted sample was then run though a Mini Zeta Netzsch mill for 150 minutes at 2000 rpm.
# [2] = rats, powder, compared with zinc pyrithione powder; cited from earlier work
smiles,measurement,setting,value
"On1ccccc1=S.On1ccccc1=S.[Cu] [Copper Pyrithione, copper pyrithione]",Mean Particle Size,[1],3.09 Microns
same,Median Particle Size,[1],3.40 Microns
same,acute inhalation toxicity,[2],more toxic than zinc pyrithione powder
